Consider 17 compounds from publication PMC6429087, “Identification of Leishmania major UDP-Sugar Pyrophosphorylase Inhibitors Using Biosensor-Based Small Molecule Fragment Library Screening” (Molecules, 2019).

The target of data set [1] is T1, LmUSP (Leishmania major, UniProt D3G6S4). In words: HPLC-based enzyme activity assay, LmUSP (UDP-Gal production). Format: biochemical. To be noted: for inhibition at 500 µM: 500 µM compound, 10% DMSO, read-out: inhibition of LmUSP activity (UDP-Gal production) compared to DMSO control; for IC50: 95% confidence intervals, concentrations 7 µM to 500 µM. The protocol: (§1) Compounds were tested at a concentration of 500 µM with 20 nM enzyme in an high-performance liquid chromatography (HPLC)-based assay at a final reaction volume of 100 µL. The DMSO concentration in the reaction was kept at 10%. The reaction buffer consisted of 10 mM Tris-HCl pH 8.0, 2 mM MgCl2, 10 mM NaCl, 0.005 U of inorganic pyrophosphatase (Thermo Fisher Scientific, Vilnius, Lithuania), and 1 mM Dithiothreitol (DTT) (for LmUSP and LmUGP only). Protein was incubated with the inhibitors and UTP (final concentration of 0.8 mM in reaction) for 30 min at room temperature, before the addition of the reaction buffer. […] The samples were spun down and the supernatants applied to a Dionex CarboPac™ PA10 column (Thermo Fisher Scientific, Sunnyvale, CA, USA). UDP-Gal or UDP-Glc (products) were separated from UTP (substrate), UMP, and UDP (both, UTP hydrolysis products) with a NaCl gradient elution ranging from 0 to 500 mM NaCl over 13 min at 0.6 mL/min. Absorption of the uracil moiety was detected at 260 nm. The peak area of UDP-Gal or UDP-Glc in reactions with inhibitors was compared to a control containing 10% DMSO. Protein concentrations were calculated from the measured UV-absorbance at 280 nm (Implen NanoPhotometer N60, Implen GmbH, München, Germany), and the proteins’ individual extinction coefficients were calculated using the online ProtParam tool (http://web.expasy.org/protparam/). […] Corresponding IC50 values were calculated by using nonlinear regression analysis with variable slope, in GraphPad Prism version 4.00 (GraphPad Software, San Diego, CA, USA).

Data set [2] deals with LmUGP (Leishmania major, UniProt Q4QDU3). In words: HPLC-based enzyme activity assay, LmUGP (UDP-Glc production). The class given is biochemical. The following applies: for inhibition at 500 µM: 500 µM compound, 10% DMSO; for IC50: 95% confidence intervals, concentrations 7 µM to 500 µM. The protocol: as §1
Data set [3] deals with T2, hUGP (Homo sapiens, UniProt Q16851).
T2 construct: made in house
T2 sequence (Q16851 1-508): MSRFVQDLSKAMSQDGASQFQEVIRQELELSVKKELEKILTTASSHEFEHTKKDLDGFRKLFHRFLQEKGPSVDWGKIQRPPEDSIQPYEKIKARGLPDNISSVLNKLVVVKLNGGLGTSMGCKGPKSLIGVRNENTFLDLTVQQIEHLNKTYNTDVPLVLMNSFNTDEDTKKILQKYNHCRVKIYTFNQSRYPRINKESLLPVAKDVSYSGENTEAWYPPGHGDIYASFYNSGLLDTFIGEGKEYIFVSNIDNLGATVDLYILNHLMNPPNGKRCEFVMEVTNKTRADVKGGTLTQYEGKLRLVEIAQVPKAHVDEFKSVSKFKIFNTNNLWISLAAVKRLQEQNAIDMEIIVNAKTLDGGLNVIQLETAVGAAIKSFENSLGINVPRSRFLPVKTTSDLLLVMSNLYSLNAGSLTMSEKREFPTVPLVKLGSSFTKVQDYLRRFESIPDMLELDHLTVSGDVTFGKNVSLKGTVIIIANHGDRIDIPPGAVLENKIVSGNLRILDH
The data set is described as follows: HPLC-based enzyme activity assay, hUGP. Format: biochemical. To be noted: 10% DMSO; for inhibition of hUGP (in words): 500 µM / high compound concentration; for decrease of hUGP activity: 500 µM compound. Here is the method: as §1

The target of data set [4] is T1, LmUSP. In words: Bio-layer interferometry (BLI) binding to biotinylated LmUSP on Super Streptavidin biosensors. To be noted: for Primary Binding Response: BLI primary screen, fragment 200 µM, 200 µM UTP in running buffer. The protocol:
A vector containing the His(6)-biotin acceptor peptide (BAP) tag was kindly provided by Prof. Mike Ferguson from the University of Dundee. The BAP tag was inserted in the XbaI and NdeI restrictions site of the previously described pET22b-LmUSP [21]. The plasmid with insert was then transformed into the E. coli BL21(DE3) expression strain, and LmUSP was expressed and purified, as described previously. Exactly 2 mg of TEV protease was added to cleave off the His tag. The protein was dialyzed in 3 × 1 L Buffer C (50 mM TRIS pH 8.0, 150 mM NaCl, 10 mM MgCl2). A concentration of 100 µM D-Biotin, 500 µM ATP, and […] BirA enzyme were added to the protein and incubated for 18 hr for biotinylation. The sample was concentrated to 11 mL, using a Vivaspin 20 30 kDa PES centrifugal concentrator (Sartorious, Stonehouse, United Kingdom). The protein was loaded onto a Superdex 200 XK26/60 equilibrated with Buffer C on the AKTA Pure at 4 °C. The eluted monomeric protein was then concentrated to 0.98 mg/mL using a Vivaspin 20 30 kDa PES centrifugal concentrator, and used for loading onto super streptavidin (SSA) biosensors (Fortebio, Shanghai, China, Part No. 18-5057, Lot No. 1612162).
The loading response to SSA biosensors was measured to find the optimal protein concentration to be used for the screen. Briefly, biosensor tips were hydrated in assay buffer (50 mM Tris pH 8.0, 150 mM NaCl, 10 mM MgCl2) for a minimum of 5 min before being sequentially transferred to assay wells containing 1) assay buffer (60 s) to establish the baseline, 2) protein at 12.5, 25, or 50 µg/mL (900 s) to measure protein loading, and 3) assay buffer to assess the reversibility of protein binding to the sensor.
For fragment screening, 16 SSA biosensors were prepared by loading LmUSP (12.5 µg/mL) for 900 s; free streptavidin sites were then blocked with biocytin (10 µg/mL) for 120 s, and finally washed in buffer W (50 mM Tris pH 8.0, 150 mM NaCl, 10 mM MgCl2, 200 µM UTP) for 60 s. In parallel, another 16 SSA sensors were loaded with 10 µg/mL biocytin alone, which acts as a quenching agent to block streptavidin sites on the sensor surface, and then washed with buffer W. These were used as reference sensors.
Initial screening was performed with DDU fragment set (965 fragments) at a single point concentration of 200 µM. The assay consisted of a 60 s baseline step, a 60 s association step, and a 60 s dissociation step. The assay was repeated with the streptavidin blocked control biosensors. Response levels for each compound were calculated by baseline subtraction, and the subtraction of the reference responses from the LmUSP responses. From the initial putative hits, compounds were further validated in a […] concentration series using 3-fold dilutions of each fragment ranging from 500 µM to 2.05 µM. Data were processed, and kinetic parameters were calculated, using the ForteBio software. A visual inspection of curves alongside steady state fitting was used to identify fragments of interest.
For orientation: In BLI a coated tip is dipped into the sample, and binding shifts an interference pattern.

In data set [5] the target is T1, LmUSP. To be noted: read-out: Km value of UTP; cited from earlier work.
Data set [6] relates to O=P(O)(O)O[C@H]1O[C@H](CO)[C@H](O)[C@H](O)[C@H]1O. In words: purified protein, by the assay type. The following applies: 0.8 mM UTP, 25 °C, pH 8.0.
Setting [7] is: BLI 7-point concentration series 2 µM to 500 µM, steady state fitting, read-out: Estimated KD.

Read-outs that look alike come from different tables or passages of the source.

For orientation: inhibition means the drop in the measured response relative to a control, in per cent. By IC50 is commonly meant the concentration that gives 50% inhibition. Low readings indicate inhibition by little substance, high ones a need for much substance. In general, Kd refers to the constant that tells how readily two partners part at equilibrium. The Km is the substrate concentration at which the rate is half of its maximum. By Vmax is commonly meant the top rate of the reaction or transport when substrate is in excess. The term kcat denotes the maximal rate divided by the concentration of active sites. In general, kcat/Km refers to the turnover number divided by the Michaelis constant.

With `O=C(Cn1c(=O)[nH]c2ccccc2c1=O)Nc1ccc2[nH]ccc2c1` [#4], in data set [1], the inhibition at 500 µM is at least 80% and the IC50 fell in the range of 135 to 175 µM. In data set [2], this compound displayed an inhibition at 500 µM above 95% and an IC50 of 126 to 134 µM. Moreover, in data set [3], the “inhibition of hUGP (in words)” value was “little effect” and the “decrease of hUGP activity” value is on record as “less than 20%”.
As to `CC(Cc1c[nH]c2ccccc12)NC(=O)Cn1c(=O)[nH]c2ccccc2c1=O` (stereo not shown) [#8A], the IC50 in data set [1] and in data set [2] was above 250 µM each time.
For `O=C(Cn1c(=O)[nH]c2ccccc2c1=O)NCCc1c[nH]c2ccc(Cl)cc12` [#8B], the IC50 in data set [1] lay in the range of 47.2 to 66.4 µM; in data set [2], 55.1 to 69.1 µM. Besides, in data set [3], the “inhibition of hUGP (in words)” value is listed as “clear inhibition”.
For `COc1ccc2[nH]cc(CCNC(=O)Cn3c(=O)[nH]c4ccccc4c3=O)c2c1` [#8C], the 50% inhibitory concentration (IC50) in data set [1] and in data set [2] was above 250 µM throughout.
For the compound `O=C(Cn1cnc2ccccc2c1=O)NCCc1c[nH]c2ccc(Cl)cc12` [#8D], the IC50 was in the range of 170 to 195 µM in data set [1] and 193 to 242 µM in data set [2]. Further, the “inhibition of hUGP (in words)” value in data set [3] was “clear inhibition”.
Taken in the same sequence, the figures for `O=C(Cn1cnc2ccccc2c1=O)NCCc1c[nH]c2ccc(F)cc12` [#8E] were 40.4 to 46.3 µM, 38 to 46.8 µM and “clear inhibition”.
For the compound `O=C(Cn1c(=O)[nH]c2ccccc2c1=O)NCCc1c[nH]c2ccccc12` [#8], in data set [1], the inhibition at 500 µM is at least 80% and the IC50 was 78.1 to 107 µM. In data set [2], this compound returned an inhibition at 500 µM above 95% and an IC50 of 120 to 151 µM. Besides, in data set [3], the “inhibition of hUGP (in words)” value is reported as “little effect” and the “decrease of hUGP activity” value was “less than 20%”.
On to `O=C(O)Cc1cccc(C(F)(F)F)c1` [DDD00095351], for which, in data set [4] (setting [7]), the dissociation constant Kd is 83.3 µM. For the same compound, the “Primary Binding Response” value in data set [4] worked out at 0.127.
For the compound `COCCNC(=O)n1c(=O)oc2ccccc21` [DDD00102262], the dissociation constant (Kd) in data set [4] (setting [7]) is 72.6 µM. Also, in data set [4], the “Primary Binding Response” value is reported as 0.077.
Taken in the same sequence, the figures for `Cn1c(=O)n(CCN)c(=O)c2ccccc21` [DDD00808259] were 67.6 µM and 0.1728.
Taken in the same sequence, the figures for `CC(C(=O)O)c1cccc(F)c1` (stereo not shown) [DDD01305586] were 60.1 µM and 0.1541.
`O=c1ccn([C@@H]2O[C@H](COP(=O)(O)OP(=O)(O)OP(=O)(O)O)[C@@H](O)[C@H]2O)c(=O)[nH]1` [UTP, uridine triphosphate, reference compound] registered a Kd in data set [4] of 89 µM. Further, in data set [5], the Km was 100 µM.
As for “LmUSP F383R mutant (Leishmania major; F383R)”, in data set [6] (other: LmUSP F383R), the Km stood at 364.00 ± 22.20 µM, the maximum rate (Vmax) is 14.8 µmol/min/mg, the kcat was determined as 17.3 s⁻¹ and the kcat/Km worked out at 47000 M⁻¹ s⁻¹.
“LmUSP V199W mutant (Leishmania major; V199W)”: in data set [6] (other: LmUSP V199W), the Michaelis-Menten constant (Km) came to 1007.25 ± 18.03 µM, the Vmax was determined as 76.8 µmol/min/mg, the turnover number (kcat) was found to be 90.2 s⁻¹ and the kcat/Km is 89000 M⁻¹ s⁻¹.
Take “LmUSP V330W mutant (Leishmania major; V330W)”: in data set [6] (other: LmUSP V330W), the Michaelis constant (Km) is recorded as 1255.00 ± 145.66 µM, the Vmax was determined as 272 µmol/min/mg, the kcat was 319 s⁻¹ and the kcat/Km came out at 255000 M⁻¹ s⁻¹.
On to “LmUSP V330W/F383R mutant (Leishmania major; F383R/V330W)”, for which, in data set [6] (other: LmUSP V330W/F383R), the Km is 276.45 ± 51.26 µM, the Vmax is 21.8 µmol/min/mg, the kcat was found to be 25.6 s⁻¹ and the kcat/Km worked out at 93000 M⁻¹ s⁻¹.
For LmUSP wild type (Leishmania major), in data set [6] (other: wild-type LmUSP), the Michaelis-Menten constant (Km) was determined as 529.20 ± 24.60 µM, the Vmax was found to be 184 µmol/min/mg, the kcat was 216 s⁻¹ and the kcat/Km worked out at 409000 M⁻¹ s⁻¹.
